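A five-concentration, 48-hour dose response in 96-well plates underlies each endpoint, interpolated linearly between surrounding concentrations. GI50 is the concentration that inhibits growth by half.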 Activity calls are given as the source filed them. Rule as the data show it: active = GI50 up to about 1.1 µM and inactive = higher.
What was measured:
Test in all cases: DTP human tumour cell line panel, 48 h
786-0 = test system: 786-0
A498 = test system: A498
A549 = test system: A549
ACHN = test system: ACHN
CAKI-1 = test system: CAKI-1
CCRF-CEM = test system: CCRF-CEM
COLO 205 = test system: COLO 205
DU-145 = test system: DU-145
EKVX = test system: EKVX
HCT-116 = test system: HCT-116
HCT-15 = test system: HCT-15
HL-60 = test system: HL-60
HOP-62 = test system: HOP-62
HOP-92 = test system: HOP-92
HT-29 = test system: HT-29
Hs-578T = test system: Hs-578T
IGROV-1 = test system: IGROV-1
K562 = test system: K562
KM12 = test system: KM12
LOX IMVI = test system: LOX IMVI
M14 = test system: M14
MCF7 = test system: MCF7
MDA-MB-231 = test system: MDA-MB-231
MDA-MB-435 = test system: MDA-MB-435
MDA-N = test system: MDA-N
MOLT-4 = test system: MOLT-4
Malme-3M = test system: Malme-3M
NCI-H226 = test system: NCI-H226
NCI-H460 = test system: NCI-H460
NCI-H522 = test system: NCI-H522
NCI/ADR-RES = test system: NCI/ADR-RES
OVCAR-3 = test system: OVCAR-3
OVCAR-4 = test system: OVCAR-4
OVCAR-5 = test system: OVCAR-5
OVCAR-8 = test system: OVCAR-8
PC-3 = test system: PC-3
RPMI-8226 = test system: RPMI-8226
RXF 393 = test system: RXF 393
SF-268 = test system: SF-268
SF-295 = test system: SF-295
SF-539 = test system: SF-539
SK-MEL-28 = test system: SK-MEL-28
SK-MEL-2 = test system: SK-MEL-2
SK-MEL-5 = test system: SK-MEL-5
SK-OV-3 = test system: SK-OV-3
SN12C = test system: SN12C
SNB-19 = test system: SNB-19
SNB-75 = test system: SNB-75
SR = test system: SR
SW-620 = test system: SW-620
T47D = test system: T47D
TK-10 = test system: TK-10
U-251 = test system: U-251
UACC-257 = test system: UACC-257
UACC-62 = test system: UACC-62
UO-31 = test system: UO-31
BT-549 = test system: BT-549
HCC 2998 = test system: HCC 2998
NCI-H23 = test system: NCI-H23

Measured: GI50

C#CCNC(Cc1c[nH]cn1)C(=O)O (centres undefined)
> 100 µM: HCT-15
inactive: 786-0 > 100 µM | A498 > 100 µM | A549 > 100 µM | ACHN > 100 µM | CAKI-1 > 100 µM | CCRF-CEM > 100 µM | COLO 205 > 100 µM | DU-145 > 100 µM | EKVX > 100 µM | HCT-116 > 100 µM | HL-60 89.3 µM | HOP-62 > 100 µM | HOP-92 > 100 µM | HT-29 > 100 µM | Hs-578T > 100 µM | IGROV-1 > 100 µM | K562 > 100 µM | KM12 > 100 µM | LOX IMVI > 100 µM | M14 > 100 µM | MCF7 > 100 µM | MDA-MB-231 > 100 µM | MDA-MB-435 > 100 µM | MDA-N > 100 µM | MOLT-4 > 100 µM | Malme-3M > 100 µM | NCI-H226 > 100 µM | NCI-H460 > 100 µM | NCI-H522 > 100 µM | NCI/ADR-RES > 100 µM | OVCAR-3 > 100 µM | OVCAR-4 > 100 µM | OVCAR-5 > 100 µM | OVCAR-8 > 100 µM | PC-3 > 100 µM | RPMI-8226 > 100 µM | RXF 393 > 100 µM | SF-268 > 100 µM | SF-295 > 100 µM | SF-539 > 100 µM | SK-MEL-28 > 100 µM | SK-MEL-2 > 100 µM | SK-MEL-5 > 100 µM | SK-OV-3 > 100 µM | SN12C > 100 µM | SNB-19 > 100 µM | SNB-75 > 100 µM | SR > 100 µM | SW-620 > 100 µM | T47D > 100 µM | TK-10 > 100 µM | U-251 > 100 µM | UACC-257 > 100 µM | UACC-62 > 100 µM | UO-31 > 100 µM

CCC(C)C(NC(=O)c1c2ccccc2nc2ccccc12)C(=O)O (centres undefined)
inactive: 786-0 > 100 µM | A498 > 100 µM | A549 77.3 µM | ACHN > 100 µM | BT-549 22.6 µM | CAKI-1 > 100 µM | CCRF-CEM 31.7 µM | COLO 205 > 100 µM | DU-145 > 100 µM | EKVX > 100 µM | HCC 2998 > 100 µM | HCT-116 > 100 µM | HOP-62 > 100 µM | HOP-92 > 100 µM | HT-29 75.9 µM | IGROV-1 86.5 µM | K562 > 100 µM | KM12 > 100 µM | LOX IMVI 74 µM | M14 > 100 µM | MCF7 98.9 µM | MDA-MB-231 > 100 µM | MDA-MB-435 79.1 µM | MOLT-4 > 100 µM | Malme-3M 51.2 µM | NCI-H226 > 100 µM | NCI-H23 83 µM | NCI-H460 > 100 µM | NCI-H522 > 100 µM | NCI/ADR-RES > 100 µM | OVCAR-3 > 100 µM | OVCAR-4 > 100 µM | OVCAR-5 > 100 µM | OVCAR-8 > 100 µM | PC-3 > 100 µM | RPMI-8226 > 100 µM | SF-268 > 100 µM | SF-295 > 100 µM | SF-539 60.7 µM | SK-MEL-28 > 100 µM | SK-MEL-2 > 100 µM | SK-MEL-5 60 µM | SK-OV-3 > 100 µM | SN12C > 100 µM | SNB-19 > 100 µM | SNB-75 > 100 µM | SR > 100 µM | SW-620 > 100 µM | TK-10 > 100 µM | U-251 > 100 µM | UACC-257 > 100 µM | UACC-62 > 100 µM | UO-31 25.1 µM
41 µM: HCT-15

CC(C)N1CN(c2ccccc2)C2(CCN(CCCC(=O)c3ccc(F)cc3)CC2)C1=O
active: COLO 205 0.483 µM
6.31 µM: HCT-15
inactive: 786-0 6.9 µM | A498 2.97 µM | A549 4.68 µM | ACHN 3.9 µM | CAKI-1 4.13 µM | CCRF-CEM 1.83 µM | DU-145 3.18 µM | EKVX 12.7 µM | HCC 2998 7.14 µM | HCT-116 2.04 µM | HL-60 19.1 µM | HOP-62 3.7 µM | HOP-92 3.78 µM | HT-29 1.79 µM | Hs-578T 16.1 µM | IGROV-1 3.85 µM | K562 25.6 µM | KM12 22 µM | LOX IMVI 7.1 µM | M14 15.3 µM | MCF7 3.88 µM | MDA-MB-231 9.14 µM | MDA-MB-435 11.1 µM | MDA-N 14.9 µM | MOLT-4 5.92 µM | Malme-3M 14.7 µM | NCI-H226 6.64 µM | NCI-H23 6.7 µM | NCI-H460 21.1 µM | NCI-H522 21 µM | NCI/ADR-RES 5.55 µM | OVCAR-3 22 µM | OVCAR-4 3.26 µM | OVCAR-5 5.42 µM | OVCAR-8 24 µM | PC-3 18.9 µM | RPMI-8226 10.3 µM | RXF 393 28.4 µM | SF-268 6.7 µM | SF-295 10.8 µM | SF-539 9.55 µM | SK-MEL-28 18.3 µM | SK-MEL-2 14 µM | SK-MEL-5 2.55 µM | SK-OV-3 42 µM | SN12C 4.68 µM | SNB-19 12.7 µM | SNB-75 36.1 µM | SR 18.1 µM | SW-620 4.99 µM | T47D 6.07 µM | TK-10 12.1 µM | U-251 26.7 µM | UACC-257 2.74 µM | UACC-62 17.9 µM | UO-31 19.4 µM

COc1nc2c(c(=O)n1C)N=C(c1ccc(Cl)cc1)CC(c1ccccc1)N2 (centres undefined)
inactive: 786-0 33.8 µM | A498 41.6 µM | A549 36.5 µM | ACHN 20.9 µM | BT-549 27.4 µM | CAKI-1 26.9 µM | CCRF-CEM 27.7 µM | COLO 205 36 µM | DU-145 33.3 µM | EKVX 21.5 µM | HCC 2998 17.7 µM | HCT-116 22.7 µM | HOP-62 32.1 µM | HOP-92 42.8 µM | HT-29 18.7 µM | IGROV-1 17.2 µM | K562 6.78 µM | KM12 16.7 µM | LOX IMVI 21.2 µM | M14 32.9 µM | MCF7 14.8 µM | MDA-MB-231 23.3 µM | MDA-MB-435 39 µM | MDA-N 18.8 µM | MOLT-4 17.6 µM | NCI-H226 16.1 µM | NCI-H23 25.2 µM | NCI-H460 14.4 µM | NCI-H522 17.9 µM | NCI/ADR-RES 22.2 µM | OVCAR-3 35.1 µM | OVCAR-4 13.3 µM | OVCAR-5 25.6 µM | OVCAR-8 26.8 µM | PC-3 37.7 µM | RPMI-8226 24 µM | RXF 393 22.5 µM | SF-295 18.8 µM | SF-539 17.7 µM | SK-MEL-28 54.1 µM | SK-MEL-2 18.7 µM | SK-MEL-5 19.5 µM | SK-OV-3 41.5 µM | SN12C 21.7 µM | SNB-19 38.8 µM | SNB-75 14.3 µM | SR 23.7 µM | SW-620 46.3 µM | U-251 35.1 µM | UACC-257 26.5 µM | UACC-62 17.6 µM | UO-31 33.5 µM
15 µM: HCT-15

O=C(/C=C/c1ccc(O)c(O)c1)OCCCc1ccccc1
active: HL-60 1.07 µM | MOLT-4 0.946 µM | NCI-H522 0.851 µM
inactive: 786-0 4.39 µM | A498 16.4 µM | A549 14.3 µM | ACHN 5.32 µM | CAKI-1 20.6 µM | COLO 205 12.4 µM | DU-145 14.1 µM | EKVX 25.8 µM | HCC 2998 20.4 µM | HCT-116 10.6 µM | HOP-62 13.7 µM | HOP-92 12.9 µM | HT-29 21.9 µM | Hs-578T 28.4 µM | IGROV-1 3.34 µM | K562 21.3 µM | LOX IMVI 12.3 µM | M14 7.78 µM | MCF7 12 µM | MDA-MB-231 11.8 µM | MDA-MB-435 9.44 µM | MDA-N 11.8 µM | Malme-3M 12.1 µM | NCI-H226 16 µM | NCI-H23 13.2 µM | NCI-H460 20.2 µM | NCI/ADR-RES 8.39 µM | OVCAR-3 1.71 µM | OVCAR-4 6.67 µM | OVCAR-5 18.4 µM | PC-3 8.85 µM | RPMI-8226 13.1 µM | RXF 393 11.2 µM | SF-268 10.2 µM | SF-295 16 µM | SF-539 2.45 µM | SK-MEL-28 15.3 µM | SK-MEL-2 17.5 µM | SK-MEL-5 13.2 µM | SK-OV-3 23.6 µM | SN12C 11.9 µM | SNB-19 15 µM | SR 5.69 µM | SW-620 12.6 µM | T47D 16.4 µM | U-251 11 µM | UACC-257 34.1 µM | UACC-62 9.84 µM | UO-31 4.95 µM
3.9 µM: HCT-15
